From patent US9302999B2, “Substituted triazoles as herbicides” (E. I. DU PONT DE NEMOURS AND COMPANY, priority 2012, dated 2016)

Columns and labels:
Type in all cases: in vivo
rice (Oryza sativa) = experiment: Test C flooded paddy test: rice; conditions: scale 0 to 100 (0 no effect, 100 complete control)
Outline: (§1)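 Rating: visual, 0–100 (100 = complete control), versus untreated controls after 13 to 15 greenhouse days. Treatment went into paddy water held at 3 cm over the soil, on plants grown to two leaves.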

[1] = test system: pigweed (Amaranthus retroflexus); experiment: Test A pre-/postemergence: pigweed; conditions: for Pigweed plant response rating: Postemergence; for Plant response rating, Pigweed: Preemergence
Outline: (§2)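 Injury was scored visually on a 0 (no effect) to 100 (complete control) scale versus untreated controls roughly ten days after treatment in the greenhouse. Compounds, formulated in surfactant-containing non-phytotoxic solvent, went on as soil-directed preemergence spray or postemergence to one- to two-leaf plants 2–10 cm tall.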

[2] = test system: foxtail, giant (giant foxtail, Setaria faberii); experiment: Test A pre-/postemergence: foxtail, giant; conditions: for Foxtail, Giant plant response rating: Postemergence; for Plant response rating, Foxtail, Giant: Preemergence
Outline: as §2

[3] = test system: barnyardgrass (Echinochloa crus-galli); experiment: Test C flooded paddy test: barnyardgrass; conditions: scale 0 to 100 (0 no effect, 100 complete control)
Outline: as §1

[4] = test system: barnyardgrass (Echinochloa crus-galli); experiment: Test A pre-/postemergence: barnyardgrass; conditions: for Barnyardgrass plant response rating: Postemergence; for Plant response rating, Barnyardgrass: Preemergence
Outline: as §2

[5] = test system: wheat (Triticum aestivum); experiment: Test A pre-/postemergence: wheat; conditions: for Wheat plant response rating: Postemergence; for Plant response rating, Wheat: Preemergence
Outline: as §2

[6] = test system: ducksalad (Heteranthera limosa); experiment: Test C flooded paddy test: ducksalad; conditions: scale 0 to 100 (0 no effect, 100 complete control)
Outline: as §1

[7] = test system: morningglory (Ipomoea spp.); experiment: Test A pre-/postemergence: morningglory; conditions: for Morningglory plant response rating: Postemergence; for Plant response rating, Morningglory: Preemergence
Outline: as §2

[8] = test system: sedge, umbrella (small-flower umbrella sedge, Cyperus difformis); experiment: Test C flooded paddy test: sedge, umbrella; conditions: scale 0 to 100 (0 no effect, 100 complete control)
Outline: as §1

corn (Zea mays) = experiment: Test A pre-/postemergence: corn; conditions: for Corn plant response rating: Postemergence; for Plant response rating, Corn: Preemergence
Outline: as §2

[9] = test system: velvetleaf (Abutilon theophrasti); experiment: Test A pre-/postemergence: velvetleaf; conditions: for Velvetleaf plant response rating: Postemergence; for Plant response rating, Velvetleaf: Preemergence
Outline: as §2

[10] = test system: crabgrass, large (large crabgrass, Digitaria sanguinalis); experiment: Test A pre-/postemergence: crabgrass, large; conditions: for Crabgrass, Large plant response rating: Postemergence; for Plant response rating, Crabgrass, Large: Preemergence
Outline: as §2

[11] = Flood (flooded paddy test), 62 g ai/ha, visual rating after 13 to 15 days
[12] = Flood (flooded paddy test), 125 g ai/ha, visual rating after 13 to 15 days
[13] = Flood (flooded paddy test), 250 g ai/ha, visual rating after 13 to 15 days
[14] = 125 g ai/ha, 0 to 100 scale, 0 is no effect, 100 is complete control
[15] = 500 g ai/ha, visual rating on 0 to 100 scale (0 no effect, 100 complete control), approximately ten days
[16] = 125 g ai/ha, 0 to 100 scale (0 no effect, 100 complete control)
[17] = 500 g ai/ha, 0 to 100 scale, 0 is no effect, 100 is complete control

Cc1nn(-c2ccnc(C(F)(F)F)c2)nc1C(=O)c1cccc(C(F)(F)F)c1 [Compound 49]
100: Pigweed plant response rating [1, 15] | Plant response rating, Pigweed [1, 17] | Plant response rating, Foxtail, Giant [2, 17] | Plant response rating, Crabgrass, Large [10, 17]
75: Plant response rating, Sedge, Umbrella [8, 13]
40: Plant response rating, Ducksalad [6, 13]
20: Barnyardgrass plant response rating [4, 15] | Wheat plant response rating [5, 15] | Plant response rating, Wheat [5, 17] | Morningglory plant response rating [7, 14] | Corn plant response rating (corn (Zea mays); [15])
30: Foxtail, Giant plant response rating [2, 14] | Plant response rating, Barnyardgrass [4, 17] | Plant response rating, Ducksalad [6, 12] | Velvetleaf plant response rating [9, 14]
0: Plant response rating, Rice (rice (Oryza sativa); [11]) | Plant response rating, Rice (rice (Oryza sativa); [12]) | Plant response rating, Rice (rice (Oryza sativa); [13]) | Plant response rating, Rice (rice (Oryza sativa); Flood, 31 g ai/ha) | Plant response rating, Barnyardgrass [3, 11] | Plant response rating, Barnyardgrass ([3]; Flood, 31 g ai/ha) | Plant response rating, Ducksalad [6, 11] | Plant response rating, Ducksalad ([6]; Flood, 31 g ai/ha) | Plant response rating, Morningglory [7, 16] | Plant response rating, Sedge, Umbrella [8, 11] | Plant response rating, Sedge, Umbrella ([8]; Flood, 31 g ai/ha) | Plant response rating, Corn (corn (Zea mays); [16]) | Plant response rating, Velvetleaf [9, 16]
60: Plant response rating, Pigweed [1, 16] | Foxtail, Giant plant response rating [2, 15] | Velvetleaf plant response rating [9, 15] | Crabgrass, Large plant response rating [10, 14]
15: Plant response rating, Barnyardgrass [3, 13]
80: Pigweed plant response rating [1, 14] | Plant response rating, Foxtail, Giant [2, 16] | Plant response rating, Crabgrass, Large [10, 16]
70: Plant response rating, Sedge, Umbrella [8, 12]
50: Morningglory plant response rating [7, 15]
10: Plant response rating, Barnyardgrass [3, 12] | Barnyardgrass plant response rating [4, 14] | Plant response rating, Barnyardgrass [4, 16] | Wheat plant response rating [5, 14] | Plant response rating, Wheat [5, 16] | Plant response rating, Morningglory [7, 17] | Corn plant response rating (corn (Zea mays); [14]) | Plant response rating, Corn (corn (Zea mays); [17]) | Plant response rating, Velvetleaf [9, 17]
90: Crabgrass, Large plant response rating [10, 15]

Cc1nn(-c2nc(Cl)ns2)nc1C(=O)c1cccc(C(F)(F)F)c1 [Compound 59]
0: Plant response rating, Rice (rice (Oryza sativa); [11]) | Plant response rating, Rice (rice (Oryza sativa); [12]) | Plant response rating, Rice (rice (Oryza sativa); [13]) | Plant response rating, Rice (rice (Oryza sativa); Flood, 31 g ai/ha) | Pigweed plant response rating [1, 14] | Pigweed plant response rating [1, 15] | Plant response rating, Pigweed [1, 16] | Plant response rating, Pigweed [1, 17] | Foxtail, Giant plant response rating [2, 14] | Foxtail, Giant plant response rating [2, 15] | Plant response rating, Foxtail, Giant [2, 16] | Plant response rating, Foxtail, Giant [2, 17] | Plant response rating, Barnyardgrass [3, 11] | Plant response rating, Barnyardgrass [3, 12] | Plant response rating, Barnyardgrass [3, 13] | Plant response rating, Barnyardgrass ([3]; Flood, 31 g ai/ha) | Barnyardgrass plant response rating [4, 14] | Barnyardgrass plant response rating [4, 15] | Plant response rating, Barnyardgrass [4, 16] | Plant response rating, Barnyardgrass [4, 17] | Wheat plant response rating [5, 14] | Wheat plant response rating [5, 15] | Plant response rating, Wheat [5, 16] | Plant response rating, Wheat [5, 17] | Plant response rating, Ducksalad [6, 11] | Plant response rating, Ducksalad [6, 12] | Plant response rating, Ducksalad [6, 13] | Plant response rating, Ducksalad ([6]; Flood, 31 g ai/ha) | Morningglory plant response rating [7, 14] | Morningglory plant response rating [7, 15] | Plant response rating, Morningglory [7, 16] | Plant response rating, Morningglory [7, 17] | Plant response rating, Sedge, Umbrella [8, 11] | Plant response rating, Sedge, Umbrella [8, 12] | Plant response rating, Sedge, Umbrella [8, 13] | Plant response rating, Sedge, Umbrella ([8]; Flood, 31 g ai/ha) | Corn plant response rating (corn (Zea mays); [14]) | Corn plant response rating (corn (Zea mays); [15]) | Plant response rating, Corn (corn (Zea mays); [16]) | Plant response rating, Corn (corn (Zea mays); [17]) | Velvetleaf plant response rating [9, 14] | Velvetleaf plant response rating [9, 15] | Plant response rating, Velvetleaf [9, 16] | Plant response rating, Velvetleaf [9, 17] | Crabgrass, Large plant response rating [10, 14] | Crabgrass, Large plant response rating [10, 15] | Plant response rating, Crabgrass, Large [10, 16] | Plant response rating, Crabgrass, Large [10, 17]
